Columns and labels:
[1] = tested on: INS-1 832/3 GLP-1R KO cells; assay: Insulin secretion assay, GLP-1R KO cells; format: cell-based, rat; details: 100 nM, 11 mM glucose; n = 5
Procedure: At the end of the treatments, the supernatant containing the secreted insulin was collected, centrifuged at 1000g for 3 minutes, and transferred to a fresh tube. To determine total insulin content, cells were lysed using KRBH buffer + 1% w/v BSA + 1% v/v Triton X-100 (Sigma). The lysates were sonicated 3 × 10 seconds in a water bath sonicator and centrifuged at 10 000g for 10 minutes, and the supernatants collected. The samples were stored at −20 °C until the insulin concentration was determined using an Insulin Ultra-Sensitive HTRF Assay kit (62IN2PEG, Cisbio, Codolet, France) according to the manufacturer's instructions.
Figure 7. Functional analysis of GLP-1R vs GIPR signaling in beta cells. […] Data are mean ± SEM, compared by paired t tests; *P < .05; ns, nonsignificant.

SNAP-tagged human GIPR [2] = assay: RICS receptor diffusion / clustering, SNAP-GIPR; format: cell-based; details: 5 minutes, 100 nM; n = 4
GIPR-SmBiT = assay: Mini-G protein/β-arrestin 2 recruitment NanoBiT, GIPR; format: cell-based; details: 100 nM GIP, n = 5
Source text: Here the SmBiT was cloned in frame at the C-terminus of the GLP-1R and the GIPR by substitution of the Tango sequence on FLAG-tagged GLP-1R-Tango or GIPR-Tango (a gift from Prof. Bryan Roth, University of North Carolina, USA; Addgene plasmids #66291 and #66294), respectively. Mini-Gs, mini-Gq, and mini-Gi plasmids, tagged at the N-terminus with LgBiT, were a gift from Prof. Nevin Lambert, Medical College of Georgia, USA. For β-arrestin 2 recruitment assays, β-arrestin 2 fused at the N-terminus to LgBiT (LgBiT-β-arrestin 2; Promega, plasmid no. CS1603B118) was chosen as it has previously been used successfully with other class B GPCRs. […]
All NanoBiT and NanoBRET readings were obtained in a Flexstation 3 plate reader. […] Readings were normalized to well baseline and then to average vehicle-induced signal to establish the agonist-induced effect. AUCs from response curves were calculated for each agonist concentration and fitted to four-parameter curves using Prism 9 (GraphPad).
Figure 5. […] (A) Kinetics of Gαs, Gαq, Gαi, and β-arrestin 2 recruitment to the GLP-1R assessed by NanoBiT complementation assay in INS-1 832/3 GLP-1R KO cells transiently expressing GLP-1R-SmBiT and the corresponding mini-G protein subtype or β-arrestin 2. […]

SNAP-GIPR = assay: Nb37 bystander NanoBiT, plasma membrane (CAAX), GIPR; format: cell-based, human; details: 30-minute AUC, n = 4
Source text: The Nb37 assay constructs were kindly provided by Prof. Asuka Inoue, Tohoku University, Japan. Nb37 (gene synthesized by GenScript with codon optimization) was C-terminally fused to SmBiT with a 15 amino acid flexible linker ([…]), and the resulting construct referred to as Nb37-SmBiT. The C-terminal KRAS CAAX motif ([…]) was N-terminally fused with LgBiT (LgBiT-CAAX). The Endofin FYVE domain (amino acid region Gln739-Lys806) was C-terminally fused with LgBiT (Endofin-LgBiT). Gαs (human, short isoform), Gβ1 (human), Gγ2 (human), and RIC8B (human, isoform 2) plasmids were inserted into pcDNA3.1 or pCAGGS expression plasmid vectors. INS-1 832/3 GLP-1R KO or GIPR KO cells were seeded in 6-well plates and co-transfected with 0.1 μg SNAP-GLP-1R or SNAP-GIPR, 0.5 μg Gαs, Gβ1, and Gγ2, 0.1 μg RIC8B, 0.1 μg CAAX-LgBiT or 0.5 μg Endofin-LgBiT with 0.1 μg or 0.5 μg Nb37-SmBiT, respectively, with 0.8 µg pcDNA3.1 added to the former to equalize DNA content.
All NanoBiT and NanoBRET readings were obtained in a Flexstation 3 plate reader. […] Readings were normalized to well baseline and then to average vehicle-induced signal to establish the agonist-induced effect. AUCs from response curves were calculated for each agonist concentration and fitted to four-parameter curves using Prism 9 (GraphPad). […]

SNAP-tagged human GIPR [3] = assay: Colocalization with SNX27-GFP, SNAP-GIPR; format: cell-based; details: 3 hours stimulation with 100 nM
GIPR-NanoLuc = assay: Mini-Gs-Venus recruitment NanoBRET, GIPR; format: cell-based; details: 100 nM, n = 4
Procedure: Mini-Gs-Venus was a gift from Prof. Nevin Lambert, Augusta University, USA. INS-1 832/3 GLP-1R KO or GIPR KO cells were seeded in 12-well plates and co-transfected with 0.5 µg mini-Gs-Venus and either 0.5 µg GLP-1R- or GIPR-NanoLuc, respectively.
All NanoBiT and NanoBRET readings were obtained in a Flexstation 3 plate reader. Briefly, 24 hours after transfection, cells were detached, resuspended in NanoGlo Live Cell Reagent (Promega) with furimazine (1:20 dilution) and seeded into white 96-well half-area plates. […] Readings were normalized to well baseline and then to average vehicle-induced signal to establish the agonist-induced effect. AUCs from response curves were calculated for each agonist concentration and fitted to four-parameter curves using Prism 9 (GraphPad).
Figure 5. Beta cell GLP-1R vs GIPR G protein subtype and β-arrestin 2 recruitment characteristics. (A) Kinetics of Gαs, Gαq, Gαi, and β-arrestin 2 recruitment to the GLP-1R assessed by NanoBiT complementation assay in INS-1 832/3 GLP-1R KO cells transiently expressing GLP-1R-SmBiT and the corresponding mini-G protein subtype or β-arrestin 2. […] (B) Kinetics of Gαs, Gαq, Gαi, and β-arrestin 2 recruitment to the GIPR assessed by NanoBiT complementation assay in INS-1 832/3 GIPR KO cells transiently expressing GIPR-SmBiT and the corresponding mini-G protein subtype or β-arrestin 2. […]

Substance | Insulin secretion response in GLP-1R KO cells [1] | GIPR diffusion (RICS) upon stimulation (SNAP-tagged human GIPR [2]) | GIPR responses for all readouts (Gαs, Gαq, Gαi, β-arrestin 2) compared with GLP-1R (GIPR-SmBiT; 30 minutes) | Gαs recruitment to the GIPR (GIPR-SmBiT) | Recruitment of Nb37 to active GIPRs vs GLP-1Rs within the plasma membrane (SNAP-GIPR) | SNAP-GIPR colocalization with SNX27 (SNAP-tagged human GIPR [3]) | Gαs recruitment to the GIPR compared to the GLP-1R (GIPR-NanoLuc)
GLP-1(7-36)NH2 | abolished |  |  |  |  |  | 
GIP(1-42) |  | marked slowing of diffusion | markedly reduced for all readouts | almost as low as those obtained for Gαi | no significant differences | sustained | significantly reduced Gαs recruitment

Reference: publication PMC10016038, “Enhanced Endosomal Signaling and Desensitization of GLP-1R vs GIPR in Pancreatic Beta Cells” (Endocrinology, 2023)
